Where a SMILES comes first, the peptide text is derived from it.

25 compounds from publication PMC8294059, “Identification and Immune Assessment of T Cell Epitopes in Five Plasmodium falciparum Blood Stage Antigens to Facilitate Vaccine Candidate Selection and Optimization” (Frontiers in Immunology, 2021) can be followed below.

The target in the first test is HLA-A*0201 (Homo sapiens, UniProt P04439, D140Y/D185E/D98H/E176V/E277Q/G131W/G231S/I119V/I121R/I166T/I218V/L300P/L318F/N151K/N90K/P208A/P217A/Q86G/Q94H/R138H/R169H/T345S). As to the kind of experiment: In vitro class I HLA binding assay (fluorescence polarization competition). The conditions noted are these: allele A*0201; cell-free competition, fluorescence polarization at 72 hours; Non-binder = no dose-dependent inhibition; read-out: IC50. The procedure: A cell-free class I HLA binding assay that allows for in vitro quantification of peptide-HLA binding affinity in a competition format was used. In this assay, a fluorescently labeled, high binding, control peptide is loaded onto 384-well ½-area plates along with unlabeled experimental peptides. To remove endogenous peptides and render the HLA A and B molecules receptive to binding, HLA is heated at 53°C for 15 minutes and immediately added to the assay. The mixture is then allowed to stand for three days. Once the mixture has reached steady equilibrium (at 72 hours), displacement of the high binding control peptide is measured through fluorescence polarization. Binding of experimental peptides is expressed as the percent inhibition of the labeled control peptide (experimental fluorescence / control fluorescence, multiplied by 100). The percent inhibition values for each experimental peptide (across a range of molar concentrations) are used to calculate the concentration which inhibits 50% of the labeled control peptide’s specific binding. This value is referred to as the peptide’s IC50.
For the compound `CC[C@H](C)[C@H](NC(=O)[C@@H](NC(=O)[C@H](CC(N)=O)NC(=O)[C@H](CC(=O)O)NC(=O)[C@H](CC(N)=O)NC(=O)CNC(=O)[C@H](CC(N)=O)NC(=O)[C@H](CC(C)C)NC(=O)[C@@H](N)C(C)C)[C@@H](C)O)C(=O)O` [EBA175_0437] (H-VLNGNDNTI-OH), the 50% inhibitory concentration (IC50) was determined as 7310 nM. For `CC[C@H](C)[C@H](NC(=O)[C@H](CO)NC(=O)[C@H](CCCCN)NC(=O)[C@H](Cc1ccccc1)NC(=O)[C@H](CCC(=O)O)NC(=O)[C@H](CO)NC(=O)[C@H](Cc1ccc(O)cc1)NC(=O)[C@H](CCSC)NC(=O)[C@@H](N)CCCCN)C(=O)O` [EBA175_0697] (H-KMYSEFKSI-OH), the IC50 is 1020 nM. Regarding `CC[C@H](C)[C@H](NC(=O)[C@@H](NC(=O)[C@H](CC(N)=O)NC(=O)[C@H](CC(=O)O)NC(=O)[C@H](CC(N)=O)NC(=O)CNC(=O)[C@H](CC(N)=O)NC(=O)[C@H](CC(C)C)NC(=O)[C@@H](NC(=O)[C@@H](N)CO)C(C)C)[C@@H](C)O)C(=O)O` [EBA175_0436] (H-SVLNGNDNTI-OH), the IC50 was 640000 nM.

For the compound `CC[C@H](C)[C@H](NC(=O)[C@H](CC(C)C)NC(=O)[C@@H](N)CO)C(=O)N[C@@H](CCCCN)C(=O)N[C@@H](CCC(N)=O)C(=O)N[C@@H](CC(N)=O)C(=O)N[C@@H](CCCCN)C(=O)N[C@@H](Cc1ccc(O)cc1)C(=O)N[C@H](C(=O)O)C(C)C` [EBA175_0116] (H-SLIKQNKYV-OH), the half-maximal inhibitory concentration (IC50) came to 29900 nM.

Staying with this test, now noted: allele A*0201; fluorescence polarization competition.
As for DMSNEYSLFI [RH5_461], the “IC50 (nM), in vitro HLA binding affinity” value is recorded as “Non-Binder”.

Staying with this test, now noted: allele A*0201; fluorescence polarization competition; read-out: IC50 (nM), in vitro HLA binding affinity.
Regarding `CC[C@H](C)[C@H](NC(=O)[C@H](CC(N)=O)NC(=O)[C@H](CC(=O)O)NC(=O)CNC(=O)[C@@H](NC(=O)[C@@H](N)Cc1ccc(O)cc1)C(C)C)C(=O)N[C@@H](CC(N)=O)C(=O)N[C@@H](CC(N)=O)C(=O)N[C@H](C(=O)O)C(C)C` [CYRPA_242] (H-YVGDNINNV-OH), the IC50 came out at 1820 nM. Still for that read-out and setting: as for `CC[C@H](C)[C@H](NC(=O)[C@@H](NC(=O)[C@H](C)NC(=O)[C@H](CC(C)C)NC(=O)[C@@H](NC(=O)[C@H](C)N)C(C)C)[C@@H](C)O)C(=O)N[C@@H](CC(C)C)C(=O)N[C@@H](CCSC)C(=O)N[C@H](C(=O)O)C(C)C` [AMA1_556] (H-AVLATILMV-OH), the figure is 23600 nM; as for `CC[C@H](C)[C@H](NC(=O)[C@@H](N)Cc1ccccc1)C(=O)N[C@@H](CO)C(=O)N[C@@H](CC(=O)O)C(=O)N[C@@H](CC(=O)O)C(=O)N[C@@H](CCCCN)C(=O)N[C@@H](CC(=O)O)C(=O)N[C@@H](CO)C(=O)N[C@@H](CC(C)C)C(=O)O` [AMA1_480] (H-FISDDKDSL-OH), 336000 nM. Same read-out and setting: to `CC(C)C[C@H](NC(=O)[C@H](CCC(=O)O)NC(=O)[C@H](CCCCN)NC(=O)[C@H](Cc1ccccc1)NC(=O)[C@H](Cc1c[nH]cn1)NC(=O)[C@H](Cc1ccc(O)cc1)NC(=O)[C@H](CCC(N)=O)NC(=O)[C@H](CC(C)C)NC(=O)[C@@H](N)Cc1ccccc1)C(=O)O` [RH5_144] (H-FLQYHFKEL-OH) belongs 14600 nM. Same read-out and setting: to `CC[C@H](C)[C@H](NC(=O)[C@H](Cc1ccc(O)cc1)NC(=O)[C@H](CO)NC(=O)[C@H](CO)NC(=O)[C@H](CC(N)=O)NC(=O)[C@H](CC(N)=O)NC(=O)[C@@H](NC(=O)[C@H](CC(C)C)NC(=O)[C@@H](N)CS)[C@@H](C)CC)C(=O)O` [AMA1_418] (H-CLINNSSYI-OH) belongs 3820 nM. Consider `CC[C@H](C)[C@H](NC(=O)[C@H](CO)NC(=O)[C@H](CO)NC(=O)[C@H](Cc1ccccc1)NC(=O)[C@H](CC(C)C)NC(=O)[C@@H](N)CC(N)=O)C(=O)N[C@@H](CCC(=O)O)C(=O)N[C@H](C(=O)N[C@H](C(=O)O)C(C)C)[C@@H](C)CC` [AMA1_092] (H-NLFSSIEIV-OH), for which the half-inhibitory concentration (IC50) is 1550 nM. Same read-out and setting: to `CSCC[C@H](NC(=O)[C@H](CCC(N)=O)NC(=O)[C@@H](N)CCCNC(=N)N)C(=O)N[C@@H](CC(C)C)C(=O)N[C@@H](Cc1ccc(O)cc1)C(=O)N[C@@H](CC(N)=O)C(=O)N[C@H](C(=O)N[C@@H](Cc1ccccc1)C(=O)N[C@@H](Cc1ccc(O)cc1)C(=O)N[C@@H](CO)C(=O)O)[C@@H](C)O` [RH5_476] (H-RQMLYNTFYS-OH) belongs 319000 nM. Take `CC[C@H](C)[C@H](NC(=O)[C@H](CCCCN)NC(=O)[C@H](Cc1c[nH]c2ccccc12)NC(=O)[C@@H](NC(=O)[C@@H](NC(=O)[C@H](CCC(N)=O)NC(=O)[C@H](CC(N)=O)NC(=O)[C@H](Cc1ccc(O)cc1)NC(=O)[C@@H](NC(=O)[C@@H](N)Cc1ccc(O)cc1)[C@@H](C)CC)[C@@H](C)CC)[C@@H](C)CC)C(=O)O` [RIPR_1011] (H-YIYNQIIWKI-OH): the IC50 is 1950 nM. As for `CC(C)C[C@H](NC(=O)[C@H](CO)NC(=O)[C@H](Cc1ccccc1)NC(=O)[C@@H](NC(=O)[C@H](CC(C)C)NC(=O)[C@@H](N)CCCCN)[C@@H](C)O)C(=O)N[C@@H](CC(=O)O)C(=O)N[C@@H](Cc1c[nH]cn1)C(=O)N[C@@H](CCCNC(=N)N)C(=O)N[C@H](C(=O)O)C(C)C` [RIPR_0035] (H-KLTFSLDHRV-OH), the IC50 was found to be 8880 nM.

As to `CSCC[C@H](NC(=O)[C@H](Cc1ccc(O)cc1)NC(=O)[C@H](CCC(=O)O)NC(=O)[C@@H](NC(=O)[C@H](Cc1c[nH]c2ccccc12)NC(=O)[C@@H]1CCCN1C(=O)[C@H](CC(N)=O)NC(=O)CNC(=O)[C@H](CCSC)NC(=O)[C@@H](N)Cc1ccc(O)cc1)[C@@H](C)O)C(=O)O` [AMA1_105] (H-YMGNPWTEYM-OH), the half-maximal inhibitory concentration (IC50) turned out to be 21400 nM. On the same count and under the same terms, as for `CC(C)C[C@H](NC(=O)[C@H](Cc1ccccc1)NC(=O)[C@H](Cc1ccccc1)NC(=O)[C@H](Cc1ccc(O)cc1)NC(=O)[C@H](CCC(N)=O)NC(=O)[C@@H](NC(=O)CNC(=O)[C@H](CC(C)C)NC(=O)[C@@H](N)CCCCN)C(C)C)C(=O)O` [CYRPA_220] (H-KLGVQYFFL-OH), the figure is 805 nM; as for `CC[C@H](C)[C@H](NC(=O)[C@H](CO)NC(=O)[C@H](CC(N)=O)NC(=O)[C@H](CCC(=O)O)NC(=O)[C@H](CC(N)=O)NC(=O)[C@H](CC(N)=O)NC(=O)[C@H](Cc1ccccc1)NC(=O)[C@H](Cc1ccccc1)NC(=O)[C@@H](NC(=O)[C@@H](N)Cc1ccc(O)cc1)[C@@H](C)CC)C(=O)O` [CYRPA_304] (H-YIFFNNENSI-OH), 2830 nM. Still for that read-out and setting: to `CC[C@H](C)[C@H](NC(=O)[C@@H](N)CCCCN)C(=O)N[C@@H](CC(N)=O)C(=O)N[C@@H](CCC(=O)O)C(=O)N[C@H](C(=O)N[C@@H](Cc1ccc(O)cc1)C(=O)N[C@@H](CC(=O)O)C(=O)N[C@@H](CCCCN)C(=O)N[C@H](C(=O)O)C(C)C)[C@@H](C)O` [RH5_212] (H-KINETYDKV-OH) belongs 10100 nM. For the compound `CC[C@H](C)[C@H](NC(=O)[C@H](CC(N)=O)NC(=O)[C@H](CC(N)=O)NC(=O)[C@H](CC(C)C)NC(=O)[C@@H](N)Cc1c[nH]cn1)C(=O)N[C@@H](Cc1ccccc1)C(=O)N[C@@H](Cc1c[nH]cn1)C(=O)N[C@@H](Cc1c[nH]cn1)C(=O)N[C@@H](CC(C)C)C(=O)O` [RH5_489] (H-HLNNIFHHL-OH), the concentration for half-maximal inhibition (IC50) turned out to be 225 nM. Still for that read-out and setting: to `CC(C)C[C@H](NC(=O)[C@@H](N)Cc1ccccc1)C(=O)N1CCC[C@H]1C(=O)N[C@H](C(=O)NCC(=O)N[C@@H](C)C(=O)N[C@@H](Cc1ccccc1)C(=O)N[C@@H](CCCCN)C(=O)N[C@@H](C)C(=O)O)[C@@H](C)O` [AMA1_379] (H-FLPTGAFKA-OH) belongs 1390 nM; to `CC[C@H](C)[C@H](NC(=O)[C@H](CCSC)NC(=O)[C@@H](N)CO)C(=O)N[C@@H](CCCCN)C(=O)N[C@@H](CO)C(=O)N[C@@H](C)C(=O)N[C@@H](Cc1ccccc1)C(=O)N[C@@H](CC(C)C)C(=O)N1CCC[C@H]1C(=O)N[C@H](C(=O)O)[C@@H](C)O` [AMA1_373] (H-SMIKSAFLPT-OH), 12500 nM; to `CC[C@H](C)[C@H](NC(=O)[C@H](CC(C)C)NC(=O)[C@H](CCCCN)NC(=O)[C@H](Cc1c[nH]cn1)NC(=O)[C@@H](NC(=O)[C@@H](N)Cc1ccc(O)cc1)[C@@H](C)CC)C(=O)N[C@@H](CC(C)C)C(=O)N[C@@H](CO)C(=O)N[C@H](C(=O)O)C(C)C` [RH5_363] (H-YIHKLILSV-OH), 1150 nM. Consider `CC[C@H](C)[C@H](NC(=O)[C@H](Cc1ccccc1)NC(=O)[C@H](CCCCN)NC(=O)[C@@H](NC(=O)[C@@H](NC(=O)[C@H](CC(=O)O)NC(=O)[C@@H](NC(=O)[C@H](Cc1ccc(O)cc1)NC(=O)[C@@H](NC(=O)[C@@H](N)Cc1ccc(O)cc1)[C@@H](C)CC)[C@@H](C)CC)[C@@H](C)O)[C@@H](C)CC)C(=O)O` [RH5_404] (H-YIYIDTIKFI-OH), for which the IC50 stood at 53100 nM. Still for that read-out and setting: as for `CC[C@H](C)[C@H](N)C(=O)N[C@@H](CC(C)C)C(=O)N[C@@H](CC(=O)O)C(=O)N[C@@H](CCSC)C(=O)N[C@@H](CO)C(=O)N[C@@H](CC(N)=O)C(=O)N[C@@H](CCC(=O)O)C(=O)N[C@@H](Cc1ccc(O)cc1)C(=O)N[C@@H](CO)C(=O)N[C@@H](CC(C)C)C(=O)O` [RH5_459] (H-ILDMSNEYSL-OH), the figure is 6870 nM. On the same count and under the same terms, to `CC(C)C[C@H](NC(=O)CNC(=O)[C@H](CC(=O)O)NC(=O)[C@H](CC(N)=O)NC(=O)[C@@H](NC(=O)[C@H](CC(N)=O)NC(=O)[C@@H](NC(=O)[C@H](CC(N)=O)NC(=O)[C@H](CC(C)C)NC(=O)[C@@H](N)Cc1ccc(O)cc1)[C@@H](C)O)C(C)C)C(=O)O` [RH5_86] (H-YLNTNVNDGL-OH) belongs 2830 nM.

As usually defined, the IC50 is the concentration needed to halve the response being measured.
